These results are taken from ChEMBL document CHEMBL1201862, “PubChem BioAssay data set” (2004).

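Test compounds were applied to cells in 96-well plates for 48 hours at 5 doses. The concentration for 50% growth inhibition is given as GI50.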 The source made the active and inactive calls. Cut-off read from the data, not from the text of the source: active = GI50 up to about 1.1 µM and inactive = higher.

Holding throughout (experiment): NCI tumour cell line growth inhibition, 48 h
Test [1] concerns CAKI-1.
Test [2] relates to DU-145.
Test [3] concerns HCT-15.
Test [4] deals with HL-60.
In test [5] the test system is HOP-92.
For test [6], the system named is M14.
Test [7] relates to MCF7.
Test [8] relates to MDA-MB-435.
The test system of test [9] is NCI-H522.
Test [10] concerns OVCAR-4.
The test system of test [11] is RPMI-8226.
Test [12] has as its system SNB-19.
The subject of test [13] is SNB-75.
The subject of test [14] is U-251.
The subject of test [15] is COLO 205.
Test [16] has as its system LOX IMVI.
The subject of test [17] is TK-10.
Test [18] concerns UACC-257.
Test [19] deals with DLD-1.
Test [20] relates to SNB-78.

As for `COc1ccc2c(c1)C(=O)/C(=C/c1ccccc1)C2`, the GI50 in test [1] was 20.2 µM (inactive); in [2], > 100 µM (inactive); in test [3] it was 69 µM; in test [4] it was > 10 µM (inactive); in test [5], 59.7 µM (inactive); in [6] it was 27 µM (inactive). Moreover, the GI50 in test [7] is 7.36 µM (inactive); in test [8] it was 63.2 µM (inactive); in [9], 45.2 µM (inactive); in test [10], 55.7 µM (inactive); in test [11] it was 45.7 µM (inactive); in test [12] it was 95.1 µM (inactive). The GI50 is 46.5 µM (inactive) in test [13] and > 100 µM (inactive) in test [14].

Consider `C/C(=N\Oc1cc(Cl)ncn1)c1ccccn1`, for which the GI50 was 18.7 µM (inactive) in test [1]; > 100 µM (inactive) in test [15]; 48.9 µM (inactive) in test [2]; 20.5 µM (inactive) in [5]; 42.3 µM (inactive) in test [16]; 18.4 µM (inactive) in test [6]. Further, the GI50 was 55.3 µM (inactive) in test [7]; 47.4 µM (inactive) in test [8]; 17.9 µM (inactive) in [9]; > 100 µM (inactive) in test [10]; > 100 µM (inactive) in test [11]; > 100 µM (inactive) in test [12]. Further, the GI50 in [13] was > 100 µM (inactive); in test [17] it was 59 µM (inactive); in test [14] it was 60.5 µM (inactive); in test [18], 99.8 µM (inactive).

Turning to `CCOC(=O)c1csc(NC(=O)CCN2CCCC2)n1`, the GI50 in test [1] is > 100 µM (inactive); in test [15] it was > 100 µM (inactive); in test [2], > 100 µM (inactive); in test [3] it was > 100 µM; in [4] it was > 100 µM (inactive); in test [5], > 100 µM (inactive). In addition, the GI50 in [16] is > 100 µM (inactive); in test [6] it was > 100 µM (inactive); in test [7], > 100 µM (inactive); in test [8], > 100 µM (inactive); in test [10], > 100 µM (inactive); in [11] it was 86.7 µM (inactive). The GI50 in [12], in [13], in test [17], in [14] and in test [18] was > 100 µM (inactive) each time.

As to `CC(=O)OCc1nnn2c1CCC2`, the GI50 in test [19] is > 100 µM (inactive); in test [3], > 100 µM; in test [4], > 100 µM (inactive); in test [5], > 100 µM (inactive); in test [16], > 100 µM (inactive); in test [6], > 100 µM (inactive). Further, the GI50 in test [9], in test [10], in test [13], in [20], in test [17] and in test [14] was > 100 µM (inactive) each time. Moreover, in test [18], the GI50 is > 100 µM (inactive).

Turning to `O=C1C=C(C2OC(CO)C(O)C2O)C(=O)N1` (stereo not drawn), the GI50 was 76.9 µM (inactive) in test [15]; > 85.3 µM (inactive) in [19]; > 74.5 µM in test [3]; 45.9 µM (inactive) in test [4]; > 100 µM (inactive) in test [5]; > 100 µM (inactive) in test [16]. In addition, the GI50 was > 91.8 µM (inactive) in test [7]; 19.8 µM (inactive) in test [9]; > 100 µM (inactive) in [10]; > 51.1 µM (inactive) in test [11]; > 100 µM (inactive) in [12]; > 100 µM (inactive) in test [13]. The GI50 in test [20], in [14] and in test [18] was > 100 µM (inactive) in each case.

Regarding `COC1OC2=CCC3C(=O)NC(=O)C3C2[C@H](OCc2ccccc2)C1OCc1ccccc1` (stereo partly drawn), the GI50 in test [19] is 1.97 µM (inactive); in [3], 1.93 µM; in [4] it was 1.79 µM (inactive); in test [5] it was 1.63 µM (inactive); in [16] it was 1.73 µM (inactive); in test [6] it was 1.81 µM (inactive). Further, the GI50 in [9] is 1.67 µM (inactive); in test [10] it was 3.84 µM (inactive); in test [13], 17.3 µM (inactive); in test [20], 2.03 µM (inactive); in test [17], 1.72 µM (inactive); in test [14], 18.7 µM (inactive). Also, the GI50 in test [18] was 2.09 µM (inactive).
